# Laboratory results reported in ChEMBL document CHEMBL4354808, “Drugs for the Treatment of Zika Virus Infection” (J Med Chem, 2020).
# pEC50, pIC50, pKd, pKi: −log10 of the molar value. Residues, ends and D or L forms follow the SMILES beside them.
# Key:
# [1] = Cytotoxicity against human RD cells; type: cell-based
# [2] = Cytotoxicity against human HuH7 cells; type: cell-based; conditions: Huh-7 cells
# [3] = Cytotoxicity against African green monkey Vero cells; type: cell-based; conditions: chlorocebus sabaeus
# NS5 [4] = target: T1, NS5 (Zika virus, UniProt A0A143MHK7); test: Inhibition of Zika virus MTase (4 to 278 residues) expressed in Escherichia coli T7 using GpppAC4 as substrate in presence of [3H]SAM incubated for 30 mins by liquid scintillation counter method
# T1 sequence (A0A143MHK7 whole entry, the tested form may be a part): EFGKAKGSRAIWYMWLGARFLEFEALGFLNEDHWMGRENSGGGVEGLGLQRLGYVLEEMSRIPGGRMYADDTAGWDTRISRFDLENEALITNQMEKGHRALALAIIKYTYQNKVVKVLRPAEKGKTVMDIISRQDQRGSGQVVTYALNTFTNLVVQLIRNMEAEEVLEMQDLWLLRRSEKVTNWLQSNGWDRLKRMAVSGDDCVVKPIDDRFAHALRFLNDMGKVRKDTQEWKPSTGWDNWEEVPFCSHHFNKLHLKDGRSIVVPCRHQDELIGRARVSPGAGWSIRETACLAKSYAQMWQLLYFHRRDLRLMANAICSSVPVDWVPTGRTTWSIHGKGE
# NS5 [5] = target: T1, NS5; test: Inhibition of Zika virus MTase (4 to 278 residues) expressed in Escherichia coli T7 using A27 RNA as substrate in presence of [3H]SAM incubated for 30 mins by liquid scintillation counter method
# Nonstructural protein 3 [6] = target: T2, Nonstructural protein 3 (Zika virus, UniProt A0A024AXB9); test: Inhibition of N-terminal His6-tagged Zika virus NS2B (49 to 95 residues) - NS3 (1 to 170 residues) protease domain expressed in Escherichia coli BL21-Gold (DE3) cells preincubated for 10 mins followed by Bz-Nle-Lys-Lys-Arg-AMC substrate addition
# T2 sequence (A0A024AXB9 whole entry, the tested form may be a part): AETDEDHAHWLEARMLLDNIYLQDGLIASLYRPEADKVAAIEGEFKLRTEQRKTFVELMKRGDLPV
# dengue virus type 2 = test: Antiviral activity against Dengue virus 2 New Guinea C infected in human A549 cells after 48 hrs by plaque reduction assay; type: functional, organism-based; conditions: A549, 48 h
# [7] = Cytotoxicity against human A549 cells after 42 hrs by WST-8 cell proliferation assay; type: cell-based
# Genome polyprotein = Genome polyprotein (dengue virus type 2, UniProt P29990); test: Inhibition of Dengue virus 2 NS2B (48 to 95 residues)-NS3 (1 to 185 residues) expressed in Escherichia coli BL21 Rosetta (DE3) incubated for 30 mins followed by Abz-RRRRSAG-nTyr substrate addition
# Sequence of Genome polyprotein (P29990 1346-1475 limits assumed): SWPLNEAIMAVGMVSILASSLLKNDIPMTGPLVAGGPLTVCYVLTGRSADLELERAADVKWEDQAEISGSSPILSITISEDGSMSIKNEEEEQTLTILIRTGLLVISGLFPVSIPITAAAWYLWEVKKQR
# Sequence of Genome polyprotein (P29990 1476-2093 limits assumed): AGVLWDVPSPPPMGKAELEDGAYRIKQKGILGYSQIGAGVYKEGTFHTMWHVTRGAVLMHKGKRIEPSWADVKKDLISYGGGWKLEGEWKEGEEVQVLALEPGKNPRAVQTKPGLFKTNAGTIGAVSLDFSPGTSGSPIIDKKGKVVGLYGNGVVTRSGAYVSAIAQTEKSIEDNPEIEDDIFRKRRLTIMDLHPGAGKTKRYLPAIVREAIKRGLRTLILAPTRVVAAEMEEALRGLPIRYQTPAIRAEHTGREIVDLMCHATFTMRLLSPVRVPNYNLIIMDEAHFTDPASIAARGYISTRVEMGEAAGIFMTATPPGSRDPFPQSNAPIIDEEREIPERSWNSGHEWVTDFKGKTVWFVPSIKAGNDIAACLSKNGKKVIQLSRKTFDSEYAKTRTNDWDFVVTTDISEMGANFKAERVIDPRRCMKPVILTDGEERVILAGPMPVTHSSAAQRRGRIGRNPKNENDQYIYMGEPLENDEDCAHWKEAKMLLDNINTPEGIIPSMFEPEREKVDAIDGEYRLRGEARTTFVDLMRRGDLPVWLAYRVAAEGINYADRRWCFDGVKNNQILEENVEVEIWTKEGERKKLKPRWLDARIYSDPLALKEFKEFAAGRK
# West Nile virus = test: Antiviral activity against West Nile virus NY003356V2 infected in human A549 cells after 48 hrs by plaque reduction assay; type: functional, organism-based; conditions: NY003356V2, A549, 48 h
# Yellow fever virus = test: Antiviral activity against Yellow fever virus 17D V3 Vaccine infected in human A549 cells after 48 hrs by plaque reduction assay; type: functional, organism-based; conditions: A549, 48 h
# Zika virus [8] = test: Antiviral activity against Zika virus Puerto Rico/PRVABC59 infected in human A549 cells after 48 hrs by plaque reduction assay; type: functional, organism-based; conditions: Puerto Rico/PRVABC59, A549, 48 h
# NS5 [9] = target: T1, NS5; test: Inhibition of Zika virus RNA-dependent RNA polymerase using poly(rC)/rG13 as substrate after 45 mins
# Zika virus [10] = test: Antiviral activity against Zika virus PLCal_ZV infected in Huh7 cells by Promega Viral ToxGlo Assay; type: functional, organism-based; conditions: Huh-7
# [11] = Cytotoxicity against golden hamster BHK21 cells by Promega Viral ToxGlo Assay; type: cell-based, Mesocricetus auratus; conditions: BHK-21 cells
# [12] = Cytotoxicity against African green monkey Vero E6 cells by the MTS method; type: cell-based, Vero C1008; conditions: chlorocebus sabaeus
# [13] = Selectivity ratio of CC50 for African green monkey Vero E6 cells to EC50 for Zika virus MR766 infected in African green monkey Vero E6 cells; type: toxicity, Vero C1008; conditions: read-out: Ratio CC50/EC50
# [14] = Cytotoxicity against human NSC by CellTiter-Glo assay; type: cell-based; conditions: NSC cells
# NS5 [15] = target: T1, NS5; test: Binding affinity to Zika virus Methyltransferase
# [16] = Cytotoxicity against human JEG3 cells incubated for 36 hrs by resazurin-dye based Alamar blue assay; type: cell-based; conditions: JEG-3 cells
# Zika virus [17] = test: Antiviral activity against Zika virus Mex2-81 infected in human Jeg-3 cells assessed as reduction in virus-induced toxicity preincubated with cells for 1 hr followed by viral infection and measured 36 hrs post infection; type: functional, organism-based; conditions: Mex2-81, JEG-3
# Zika virus [18] = test: Antiviral activity against Zika virus PA 259459 infected in SJL mouse assessed as decrease in viral RNA at 30 mg/kg dosed 5 times per day via drinking water for 5 days by RT-PCR relative to control; type: functional
# [19] = Cytotoxicity against human Neural progenitor cells after 24 hrs by ATP-Lite assay; type: cell-based
# [20] = Half life in SJL mouse infected with Zika virus PA259459 at 10 mg/kg, ip measured up to 2 hr post infection by LC-MS/MS analysis; type: ADME, organism-based; conditions: in vivo
# Nonstructural protein 3 [21] = target: T2, Nonstructural protein 3; test: Inhibition of wild type Zika virus NS2B-NS3 protease preincubated for 30 mins followed by Pyr-RTKR-AMC substrate addition
# [22] = Cytotoxicity against African green monkey Vero cells incubated for 4 days by luminescence method; type: cell-based; conditions: chlorocebus sabaeus
# Nonstructural protein 3 [23] = target: T2, Nonstructural protein 3; test: Inhibition of N-terminal His6-tagged Zika virus NS2B (45 to 96 residues) - NS3 (1 to 177 residues) protease domain expressed in Escherichia coli BL21-Gold (DE3) cells or Escherichia coli BL21 Rosetta (DE3) preincubated for 30 mins followed by Bz-nKRR-AM substrate addition measured over 10 mins at 60 secs interval by fluorescence method
# [24] = Inhibition of Protein E in Zika virus SZ01 infected in BHK21 cells assessed as antiviral activity after 12 hrs by CCK8 assay; type: cell-based; conditions: SZ01, BHK-21, 12 h
# [25] = Cytotoxicity against BHK21 cells after 24 hrs by CCK8 assay; type: cell-based, Mesocricetus auratus; conditions: hamster, BHK-21 cells
# [26] = Inhibition of Protein E in Zika virus FLR infected in BHK21 cells assessed as antiviral activity after 12 hrs by CCK8 assay; type: cell-based; conditions: BHK-21, 12 h
# [27] = Cytotoxicity against human HuH7 cells after 24 hrs by CCK8 assay; type: cell-based; conditions: Huh-7 cells
# [28] = Inhibition of Protein E in Zika virus MR766 infected in BHK21 cells assessed as antiviral activity after 12 hrs by CCK8 assay; type: cell-based; conditions: MR766, BHK-21, 12 h
# [29] = Cytotoxicity against African green monkey Vero cells after 24 hrs by CCK8 assay; type: cell-based; conditions: chlorocebus sabaeus
# Zika virus [30] = test: Antiviral activity against Zika virus MR766 infected in African green monkey Vero cells by plaque assay; type: functional, organism-based
# [31] = Cytotoxicity against BHK21 cells after 24 to 48 hrs by CCK8 assay; type: cell-based, Mesocricetus auratus; conditions: hamster, BHK-21 cells
smiles,measurement,setting,value
Nc1ncnc2c([C@@H]3N[C@H](CO)[C@@H](O)[C@H]3O)c[nH]c12,CC50,[1],> 89 µM
same,CC50,[2],> 89 µM
same,CC50,[3],> 89 µM
C#C[C@@]1(O)[C@H](O)[C@@H](CO)O[C@H]1n1ccc2c(N)ncnc21,CC50,[3],> 50 µM
Nc1cc(C(F)(F)F)ccc1NC(=O)Nc1cccc(S(=O)(=O)Nc2ccc(C(=O)O)cc2)c1,pIC50,NS5 [4],4.62
same,pIC50,NS5 [5],4.10
N=C(N)NCCC[C@H](NC(=O)[C@H](Cc1ccc(CN)cc1)NC(=O)c1ccccc1)B(O)O,pIC50,Nonstructural protein 3 [6],6.60
same,pKi,Nonstructural protein 3 [6],7.40
O=C1C=C/C(=N/Nc2ccc([N+](=O)[O-])cc2Cl)C=C1C(=O)Nc1cccc(Cl)c1,pEC50,dengue virus type 2,6.09
same,CC50 at 42 h,[7],48.8 µM
same,pIC50,Genome polyprotein,5.74
same,pEC50,West Nile virus,5.90
same,pEC50,Yellow fever virus,6.55
same,pEC50,Zika virus [8],6.00
[N-]=[N+]=NCc1cnc(C(=O)NO)c(O)c1CO,pIC50,NS5 [9],5.28
same,pEC50,Zika virus [10],5.34
same,CC50,[11],22 µM
CCCCCOCc1c(Nc2ccc(S(N)(=O)=O)cc2)nc(N2CCOCC2)nc1C(=O)NCCOc1ccccc1,CC50,[12],> 83.5 µM
same,selectivity ratio,[13],> 41
C#C[C@@]1(O)[C@H](O)[C@@H](COP(=O)(N[C@@H](C)C(=O)OC(C)C)Oc2ccccc2)O[C@H]1n1ccc(=O)[nH]c1=O (some centres undefined),CC50,[14],> 50 µM
Nc1ncnc2c1ncn2[C@@H]1O[C@H](CN(CC[C@H](N)C(=O)O)Cc2ccc(F)cc2)[C@@H](O)[C@H]1O,pKd,NS5 [15],4.61
CO[C@H]1CC[C@@H](O[C@H]2C[C@H]([C@]3(C)CC[C@]4(C[C@H](O)[C@@H](C)[C@@H]([C@@H](C)/C=C(\C)C(=O)[C@H](C)C[C@H](C)C(=O)O)O4)O3)O[C@]3(O[C@@H]([C@H]4O[C@@](O)(CO)[C@H](C)C[C@@H]4C)C[C@@H]3C)[C@@H]2C)O[C@@H]1C,CC50 at 36 h,[16],6.1 µM
same,pEC50,Zika virus [17],6.01
Clc1nc2n[nH]nc2nc1Cl,fold change (FC),Zika virus [18],10
same,CC50 at 24 h,[19],> 50 µM
same,half-life,[20],20 min
same,pIC50,Nonstructural protein 3 [21],6.09
CC(C)OC(=O)[C@H](C)NP(=O)(OC[C@H]1O[C@@H](n2ccc(=O)[nH]c2=O)[C@H](O)[C@@H]1O)Oc1ccccc1 (some centres undefined),CC50,[14],47 µM
O=C(NC(=S)Nc1ccc(N2CCN(C(=O)c3cccs3)CC2)cc1)c1sc2ccccc2c1Cl,CC50 at 96 h,[22],19.4 µM
COc1ccc(S(=O)(=O)n2nc(OC(=O)c3ccccc3)cc2N)cc1,pIC50,Nonstructural protein 3 [23],5.82
CC[C@H](C)[C@H](NC(=O)CNC(=O)[C@H](CCCCN)NC(=O)CNC(=O)[C@H](CC(C)C)NC(=O)[C@H](CO)NC(=O)[C@H](CC(N)=O)NC(=O)[C@H](CC(C)C)NC(=O)[C@H](C)NC(=O)CNC(=O)CNC(=O)[C@@H](NC(=O)[C@H](CO)NC(=O)CNC(=O)[C@H](Cc1ccccc1)NC(=O)[C@H](CC(=O)O)NC(=O)[C@H](Cc1c[nH]c2ccccc12)NC(=O)[C@H](C)NC(=O)[C@@H](NC(=O)[C@H](CC(=O)O)NC(=O)CNC(=O)[C@H](CC(C)C)NC(=O)[C@@H](NC(=O)[C@H](C)NC(=O)[C@@H](N)CCSC)C(C)C)[C@@H](C)O)C(C)C)C(=O)N[C@@H](Cc1cnc[nH]1)C(=O)N[C@@H](CCC(N)=O)C(=O)N[C@H](C(=O)N[C@@H](Cc1ccccc1)C(=O)NCC(=O)N[C@@H](C)C(=O)N[C@@H](C)C(=O)N[C@@H](Cc1ccccc1)C(=O)O)[C@@H](C)CC (H-MAVLGDTAWDFGSVGGALNSLGKGIHQIFGAAF-OH),pEC50,[24],4.86 to 5.76
same,CC50 at 24 h,[25],> 50 µM
same,pEC50,[26],4.86 to 5.76
same,CC50 at 24 h,[27],> 50 µM
same,pEC50,[28],4.86 to 5.76
same,CC50 at 24 h,[29],> 50 µM
"O[C@@H](c1cc(C(F)(F)F)nc2c(C(F)(F)F)cccc12)[C@H]1CCCCN1 [(S,R)-MEFLOQUINE]",pEC50,Zika virus [30],5.40
same,CC50,[31],20.4 µM
C[S+](CC[C@H](N)C(=O)[O-])C[C@H]1O[C@@H](n2cnc3c(N)ncnc32)[C@H](O)[C@@H]1O (some centres undefined) [ADEMETIONINE],pKd,NS5 [15],5.59
